Among the test systems are MOLT-4; NCI-H23; SW-620; K562; SF-295; U-251; SN12C; SNB-19; DU-145; NCI-H522; SR; LOX IMVI; 786-0; IGROV-1; TK-10; MDA-MB-231; UACC-257; A549; M14; RPMI-8226.
Holding throughout (experiment): inhibition of tumour cell growth, NCI panel, 48 h

We go through 11 compounds from ChEMBL document CHEMBL1201862, “PubChem BioAssay data set” (2004).

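Assay format: 96-well plates, 48-hour exposure. GI50 marks 50% less growth.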 Activity calls are given as the source filed them. Cut-off read from the data, not from the text of the source: active = GI50 up to about 1.1 µM and inactive = higher. Bounds are passed on as bounds.

`CC(C)=CCC/C(C)=C/CCC1(C)C2COC(=O)C21` (stereo unspecified): the GI50 in the assay on MOLT-4 is 30.9 µM (inactive); in the assay with NCI-H23, 51.3 µM (inactive); with SW-620, 19.3 µM (inactive); in the assay with K562, 22.6 µM (inactive); in the assay on SF-295, 77.4 µM (inactive); in the assay on U-251 it was 66.2 µM (inactive). Further, the GI50 was 77.3 µM (inactive) with SN12C; 82.8 µM (inactive) with SNB-19; 60.5 µM (inactive) in the assay with DU-145; 53.2 µM (inactive) with NCI-H522; 37 µM (inactive) with SR; 26.7 µM (inactive) with LOX IMVI. Further, the GI50 with 786-0, with IGROV-1, in the assay on TK-10, in the assay on MDA-MB-231 and in the assay with UACC-257 was > 100 µM (inactive) in each case.

Take `CC(=O)Nc1sc([N+](=O)[O-])cc1S(=O)(=O)c1ccc(Cl)cc1`: the GI50 in the assay with MOLT-4 was 3.78 µM (inactive); with NCI-H23, 2.39 µM (inactive); with SW-620, 5.37 µM (inactive); in the assay on K562, 5.47 µM (inactive); in the assay on SF-295, 2.14 µM (inactive); with U-251, 4.22 µM (inactive). For the same compound, the GI50 in the assay on SN12C was 3.8 µM (inactive); in the assay with A549, 2.4 µM (inactive); with SNB-19, 3.31 µM (inactive); in the assay on DU-145 it was 3.3 µM (inactive); in the assay with M14, 2.02 µM (inactive); in the assay with NCI-H522, 1.41 µM (inactive). The GI50 was 3.94 µM (inactive) in the assay with LOX IMVI; 4.66 µM (inactive) in the assay with 786-0; 4.69 µM (inactive) in the assay on IGROV-1; 5.28 µM (inactive) in the assay with TK-10; 4.23 µM (inactive) in the assay on MDA-MB-231; 2.64 µM (inactive) with UACC-257. Also, in the assay on RPMI-8226, the GI50 was 3.14 µM (inactive).

For the compound `O=[N+]([O-])c1ccc2c(c1)Cc1cc(/N=C/c3ccc4c(c3)OCO4)ccc1-2`, the GI50 with MOLT-4, in the assay with NCI-H23, in the assay with SW-620, in the assay with K562, with SF-295 and in the assay with U-251 was > 100 µM (inactive) in each case. For the same compound, the GI50 in the assay on SN12C, in the assay with A549, in the assay on SNB-19, in the assay on DU-145, in the assay on M14 and in the assay on NCI-H522 was > 100 µM (inactive) throughout. Besides, the GI50 in the assay with LOX IMVI, with 786-0, in the assay on IGROV-1, in the assay on TK-10, with MDA-MB-231 and in the assay with UACC-257 was > 100 µM (inactive) in each case. Further, the GI50 with RPMI-8226 was > 100 µM (inactive).

Regarding `COc1c(O)c(OC)c(C(=O)/C=C/c2ccccc2)c(O)c1OC` [PEDICIN], the GI50 was 30.5 µM (inactive) with MOLT-4; 27.9 µM (inactive) in the assay with SW-620; 40.6 µM (inactive) with K562; 35.6 µM (inactive) in the assay with SF-295; 31.9 µM (inactive) with U-251; 18.3 µM (inactive) with SN12C. The GI50 is 92 µM (inactive) in the assay with SNB-19; 29.1 µM (inactive) in the assay with DU-145; 37.6 µM (inactive) with M14; 16 µM (inactive) with NCI-H522; 30.3 µM (inactive) in the assay on LOX IMVI; 32.4 µM (inactive) with 786-0. Moreover, the GI50 in the assay on IGROV-1 is 21.3 µM (inactive); in the assay on TK-10, 36.3 µM (inactive); with MDA-MB-231, 21.3 µM (inactive); in the assay on UACC-257 it was > 100 µM (inactive); in the assay with RPMI-8226, 34.6 µM (inactive).

Turning to `COc1cc(/C=C2\CC3C4CC[C@H]5C[C@@H](O)CC[C@]5(C)C4CC[C@]3(C)C2=O)cc(OC)c1OC` (stereo partly specified), the GI50 in the assay on MOLT-4 is 4.82 µM (inactive); with NCI-H23 it was 20.4 µM (inactive); in the assay on SW-620, 24.8 µM (inactive); in the assay on K562 it was 4.68 µM (inactive); in the assay with SF-295, 4.69 µM (inactive); with U-251, 8.26 µM (inactive). Moreover, the GI50 with SN12C was 15.2 µM (inactive); with A549 it was 7.18 µM (inactive); in the assay on SNB-19, 17.5 µM (inactive); in the assay with DU-145, 27.2 µM (inactive); in the assay with M14, 17.4 µM (inactive); in the assay on NCI-H522 it was 7.93 µM (inactive). Besides, the GI50 in the assay with LOX IMVI was 12.6 µM (inactive); in the assay with 786-0, 16 µM (inactive); with IGROV-1, 36.6 µM (inactive); in the assay with TK-10 it was 27.6 µM (inactive); in the assay with MDA-MB-231 it was 22.1 µM (inactive); in the assay with UACC-257, 21.8 µM (inactive). Further, the GI50 in the assay with RPMI-8226 is 4.17 µM (inactive).

Turning to `O/N=N/c1ccc(-c2ccccc2)cn1`, the GI50 in the assay with MOLT-4 is 0.0755 µM (active); with NCI-H23 it was 4 µM (inactive); in the assay on SW-620, 10.7 µM (inactive); in the assay on K562 it was 19.6 µM (inactive); in the assay on SF-295, 8.13 µM (inactive); in the assay on U-251, 15.7 µM (inactive). Further, the GI50 was 10.8 µM (inactive) in the assay on SN12C; 21.7 µM (inactive) in the assay on A549; 18.1 µM (inactive) with SNB-19; 2.22 µM (inactive) in the assay with DU-145; 9.08 µM (inactive) in the assay with M14; 18.8 µM (inactive) with NCI-H522. For the same compound, the GI50 was 6.21 µM (inactive) with LOX IMVI; 6.38 µM (inactive) in the assay with 786-0; 27.7 µM (inactive) in the assay with IGROV-1; 22.3 µM (inactive) in the assay on TK-10; 28.6 µM (inactive) in the assay on MDA-MB-231; 43.9 µM (inactive) with UACC-257. Also, the GI50 in the assay with RPMI-8226 was < 0.01 µM (active).

Take `CCN(CC)CC1CCCCN1CC(=O)N1c2ccccc2NC(=O)CC1C` (stereo unspecified): the GI50 with MOLT-4, with NCI-H23, in the assay on SW-620, with K562, in the assay on SF-295 and with U-251 was > 100 µM (inactive) in each case. The GI50 with SN12C, with A549, in the assay with SNB-19, in the assay with DU-145, with M14 and in the assay with NCI-H522 was > 100 µM (inactive) in each case. For the same compound, the GI50 in the assay with LOX IMVI, in the assay on 786-0, in the assay on IGROV-1, with TK-10, in the assay with MDA-MB-231 and in the assay on UACC-257 was > 100 µM (inactive) throughout. The GI50 with RPMI-8226 is > 100 µM (inactive).

Regarding `Cc1ccc(-n2nncc2[Si](C)(C)C)s1`, the GI50 in the assay on NCI-H23, in the assay on SW-620, in the assay on K562, in the assay with SF-295, with U-251 and in the assay on SN12C was > 100 µM (inactive) in each case. Further, the GI50 in the assay with A549, in the assay on SNB-19, in the assay on DU-145, in the assay on M14, in the assay with NCI-H522 and in the assay with LOX IMVI was > 100 µM (inactive) throughout. Moreover, the GI50 in the assay on 786-0, with TK-10, in the assay on MDA-MB-231, in the assay on UACC-257 and in the assay with RPMI-8226 was > 100 µM (inactive) in each case.

As to `C/C(=N\N=C(\N)OB(F)F)c1ccccn1`, the GI50 in the assay with NCI-H23 was > 100 µM (inactive); with SW-620 it was > 100 µM (inactive); in the assay on K562, 46.7 µM (inactive); with SF-295, 66.8 µM (inactive); in the assay with U-251, 35.7 µM (inactive); with SN12C, > 100 µM (inactive). Further, the GI50 with A549 is > 100 µM (inactive); in the assay on SNB-19, > 100 µM (inactive); in the assay on DU-145 it was > 100 µM (inactive); in the assay on M14, > 100 µM (inactive); in the assay with NCI-H522, > 100 µM (inactive); in the assay on SR it was 76.6 µM (inactive). The GI50 in the assay on LOX IMVI is 28.2 µM (inactive); in the assay on 786-0, 40.4 µM (inactive); in the assay on IGROV-1, 64.3 µM (inactive); with TK-10, 59.7 µM (inactive); in the assay on MDA-MB-231, 24.6 µM (inactive); in the assay with UACC-257, > 100 µM (inactive).

With `O=C(/C=C/c1ccc(OCc2ccccc2)cc1)NCc1ccc(C(=O)NCCc2c[nH]c3ccccc23)cc1`, the GI50 was > 59.8 µM (inactive) in the assay on MOLT-4; 14.9 µM (inactive) in the assay on NCI-H23; > 65.2 µM (inactive) in the assay with SW-620; 44.4 µM (inactive) with K562; 3.41 µM (inactive) in the assay with SF-295; 4.37 µM (inactive) with U-251. Also, the GI50 in the assay with SN12C is 23.8 µM (inactive); in the assay with A549, 17.7 µM (inactive); with SNB-19, 9.77 µM (inactive); with DU-145 it was 32.8 µM (inactive); in the assay on M14 it was 27.8 µM (inactive); in the assay with SR, 20.9 µM (inactive). Further, the GI50 with LOX IMVI is 44.3 µM (inactive); in the assay on 786-0, 3.61 µM (inactive); in the assay with IGROV-1, 15.9 µM (inactive); in the assay on TK-10 it was 9.35 µM (inactive); in the assay on MDA-MB-231, 13.8 µM (inactive); in the assay with UACC-257, 33 µM (inactive). For the same compound, the GI50 in the assay with RPMI-8226 is > 100 µM (inactive).

`S=C(N/N=C\C=N/NC(=S)N1CCCCC1)N1CCCCC1`: the GI50 with NCI-H23 is 1.16 µM (inactive); with SW-620, 0.0977 µM (active); in the assay on K562, 0.547 µM (active); in the assay on SF-295, 0.155 µM (active); in the assay on U-251, 0.207 µM (active); in the assay with SN12C, 0.723 µM (active). Further, the GI50 in the assay with A549 is 0.107 µM (active); in the assay with SNB-19, 0.41 µM (active); in the assay with DU-145 it was 0.202 µM (active); in the assay with M14, 0.208 µM (active); with NCI-H522, 0.608 µM (active); in the assay on LOX IMVI, 0.32 µM (active). Moreover, the GI50 with 786-0 is 0.525 µM (active); in the assay with IGROV-1 it was 0.664 µM (active); with TK-10, 1.61 µM (inactive); with MDA-MB-231, > 96.2 µM (inactive); with UACC-257 it was 1.25 µM (inactive); in the assay on RPMI-8226, 0.433 µM (active).
